Patent publication US12667546B2, “Methods for manipulating cell state transitions in cancer” (AGENCY FOR SCIENCE, TECHNOLOGY AND RESEARCH, priority 2018, dated 2026)

Key:
NAMEC8 [1] = experiment: Expression of EMT and lineage markers (qRT-PCR, immunoblot, immunofluorescence) in NAMEC8; assay type: cell-based, human; conditions: transcript and protein
Description: Cells were rinsed twice in ice-cold PBS. Total RNA was extracted using Trizol (Invitrogen) and column-purified with RNeasy kits (Qiagen). cDNA synthesis was performed with 500 ng of total RNA at 37° C. for 2 h using the SuperScript III First-Strand Synthesis System (Thermo Fisher Scientific), and subsequently diluted 5-fold. mRNA levels were measured with gene-specific primers listed below using the ABI Prism 7900HT Sequence Detection System 2.2 (Applied Biosystems). Results were normalized to GAPDH and analyzed using SDS 2.2 software.
Cells were harvested and scraped from culture dishes in ice-cold PBS. They were then centrifuged at 12000 rpm for 5 min at 4° C. The pellets were then snap frozen in liquid nitrogen or lysed in ice-cold RIPA lysis buffer (Thermo Scientific) and left on ice for 30 min. Subsequently, the lysates were centrifuged at 12000 rpm for 10 min at 4° C. The supernatants were then aspirated and placed in fresh tubes. Protein concentrations were determined using Coomaisse Blue. 50-80 μg total protein was mixed with NuPAGE™ LDS sample buffer and heated at 70° C. for 10 min. Samples were loaded into NuPAGE™ 4-12% Bis-Tris gels (precast polyacrylamide gel; Invitrogen™). Gel electrophoresis was done at 200V for 1.5 h and then blotted onto nitrocellulose membranes (Trans-Blot Turbo™ transfer pack; Bio-Rad). The membranes were blocked with 5% skimmed milk in Tris-buffered saline (TBS; 1st BASE) with 0.1% Tween-20 (Santa Cruz), and then incubated with primary antibodies overnight at 4° C. Thereafter, the membranes were incubated with a horseradish peroxidase (HRP)-conjugated secondary antibody at room temperature for one hour. Finally, the immunoreactive proteins were visualized by using an enhanced chemiluminescent (ECL) reagent (Thermo Scientific, 34075) with the Chemidoc™ Imager (Bio-Rad, 17001401).
Cell cultures were fixed in 4% paraformaldehyde and permeabilized with 0.25% Triton X-100, followed by blocking with 1% bovine serum albumin in PBST. Cells were incubated in specific primary antibodies, followed by the appropriate secondary antibodies conjugated with Alexa Fluor-488 or -594 (Molecular Probes). Cell nuclei were then stained with DAPI and then viewed and imaged with an Axio Observer D1 epifluorescence microscope with a built-in AxioCamMR3 camera (Zeiss), using the optimal filters and 100-200× magnifications.

NAMEC8 [2] = experiment: Lipid droplet staining (Bodipy); assay type: cell-based, human; conditions: NAMEC8, with bexarotene
Description: Intracellular lipid droplets were visualized with fluorescent Bodipy dye. Cells in culture were fixed in 4% paraformaldehyde for 15 min at room temperature, rinsed twice with PBS and permeabilized with 0.2% TritonX-100 in PBS for 10 min and incubated with Bodipy diluted in PBS (final concentration 1 μg/ml) for overnight at 4° C. Cells were washed with PBS and stained with DAPI. Fluorescence images were obtained with an Axio Observer D1 epifluorescence microscope with a built-in AxioCamMR3 camera (Zeiss), using the optimal filters and 100-200× magnifications.

NAMEC8 [3] = experiment: Mammosphere assay, NAMEC8; assay type: cell-based, human; conditions: NAMEC8, pre-treated cells
Description: For mammosphere culture, cells were seeded onto 96-well ultralow-adherence plates at 700 cells/well in Mammocult medium (Stem Cell Technologies) supplemented with 4 μg/ml heparin, 0.5 μg/ml hydrocortisone and 1% methylcellulose. Spheres (>100 μm) were counted at 7-10 days later.

NAMEC8 [4] = experiment: Cell morphology of treated NAMEC8; assay type: cell-based, human; conditions: bexarotene, TTNPB, SGC-CBP30, UNC0642, A-485 1 μM, LLY-283, GSK591 20 nM, C-IN-1 500 nM
Description: Human mammary epithelial cell lines (HMLE) were generated as described and immortalized using retroviral vectors to express the catalytic subunit of the human telomerase enzyme, hTERT and the SV-40 Large T antigen. NAMEC8 was generated as described. Briefly, HMLE cells were grown to 50% confluency, followed by differential trypsinization for 1 minute with 0.05% trypsin. Detached cells were carefully collected and re-plated at approximately 200 cells per well of a 24-well plate. Upon expansion, wells were screened for populations that were morphologically mesenchymal and can be stably propagated. Clonal and non-clonal NAMEC cell lines were generated. NAMEC8 is a non-clonal line derived from at least 200 mesenchymal cells. HMLE cells and NAMECs were maintained in MEGM (Lonza).

[5] = test system: SERPINE1prom-Luc reporter in NAMEC8 cells; experiment: Dual-Glo luciferase assay of SERPINE1prom-Luc reporter (FF/Ren); assay type: cell-based, human; conditions: for dose-dependent change of SERPINE1 promoter activity: dose response (metabolic hits 10 nM to 2 μM; epigenetic hits six concentrations)
Description: pGreenFire1-mCMV was cut using ClaI and SpeI and gel purified. Promoter sequences of genes Zeb1, Serpine1, CDH1, CD24, CD44, CD166 were amplified from human genomic DNA with pre-designed primers containing ClaI and SpeI restriction cut sites using AccuPrime Taq DNA Polymerase (Thermo Fisher Scientific). PCR products were then digested with restriction enzymes and gel-purified. Vector was ligated with PCR insert using Quick Ligase (Fermentas) and transformed into Stb12 competent cells. Colonies were picked and inoculated into TB media with ampicillin. Plasmids were then isolated using a plasmid miniprep kit (Qiagen) and sent for sequencing (1 stBASE Laboratories). After verifying the plasmid sequence, transfection into HEK293 cells was carried out to generate lentivirus. Transfection was carried out using FuGENE 6 (Promega). Viral supernatant was harvested at 24 h and 48 h. NAMEC8 cells were then infected twice with virus using polybrene ([…]) and checked for good transduction efficiency using Dual-Glo Luciferase System (Promega).
Stock plates of compound libraries were kindly prepared by GIS CHiP facility at 1 mM concentration in DMSO. NAMEC8-SERPINE1prom-Luc cells were seeded into 384 well plates at a density of 700 cells/well in a total volume of 50 μl, using an automated dispensing system (BioTek). 0.5 μl of compounds were then added to the wells the following day using a robotic pin transfer with a Bravo workstation (Agilent Technologies). Cells were then grown for 3 days and promoter-luciferase activity was measured using the Dual-Glo Luciferase System (Promega).
Assay was carried out according to manufacturer's instructions. To measure luciferase activity in 384 well plates, media was first removed from the plate. Firefly luciferase activity was determined by adding 30 μl Dual-Glo Luciferase substrate (Promega) to the wells and incubated for 10 min before measuring luminescence using a TECAN M1000 Pro plate reader. 15 μl Dual-Glo Stop & Glo substrate was then added to the wells, incubated for 10 min and measuring luminescence on the plate reader to determine Renilla luciferase activity. Promoter luciferase activity is then calculated by taking Firefly luciferase over Renilla luciferase.

SUM159 [6] = experiment: Cell morphology of treated SUM159; assay type: cell-based, human; conditions: bexarotene, TTNPB 1 μM
Description: HMLE-Twist-ER cells were generated as described. For EMT-induction, 100 nM of 4-hydroxytamoxifen in ethanol was added to the culture medium every 48 h to induce Twist expression. Control cells were treated with ethanol. MCF7-Slug+Sox9 cells were generated as previously described. HMLE-Zeb1 cells were generated by infection with FUW-Zeb1 and rTTA. Doxycycline was added to the culture medium every 48 h to induce Zeb1 expression. To generate tumorigenic cells from NAMEC8, cells were infected with pWZL-Blast-Ras. MCF7, MCF7-Ras, SUM159 were maintained as previously described. All cell cultures were maintained at 37° C. with 5% CO2.

[7] = test system: Estrogen response element (ERE)-luciferase reporter in NAMEC8; experiment: ERE-luciferase activity assay; assay type: cell-based, human
Description: ERE luciferase construct was kindly provided by Alan Prem Kumar, CSI, Singapore. To measure the ERE-luciferase activity, cells were seeded 24 h before transfection. ERE-luciferase (1 μg) and NSV-Renilla (0.1 μg) were packaged using Lipofectamine 2000 and transfected into NAMEC8. 24 h post-transfection, cells were reseeded into 96 well plates for drug treatment. Firefly and Renilla luciferase activities were measured with the Dual-Glo Luciferase System (Promega) 24 h post-treatment.

[8] = test system: NAMEC8-SERPINE1prom-Luc cells; experiment: Renilla-luciferase (constitutive CMV promoter) readout for cell numbers; assay type: cell-based, human; conditions: primary screen, Renilla as readout for cell numbers, relative to DMSO
SUM159 [9] = experiment: Tumor growth of ex vivo pre-treated SUM159 injected subcutaneously; assay type: in vivo, NSG mice; conditions: short-term (14 days) ex vivo treatment before transplantation
Description: (§1) All animal experiments were approved by the Agency for Science Technology and Research Singapore-Biological Resource Centre IACUC (Protocol number 140940). For pre-treated SUM159 and MCF7-Ras cells, 1×10^6 cells were suspended in 100 μl media containing 50% matrigel and injected subcutaneously into both flanks of female NSG mice. The NSG mice were checked for tumor by palpation once a week and tumors were harvested when they reached ˜15 mm in diameter. For treatment in NSG mice, 1×10^5 NAMEC8-Ras cells were suspended in 100 μl media containing 50% matrigel and injected subcutaneously into both flanks of NSG mice. The NSG mice were checked for tumor formation by palpation and when tumors were about 3 mm, mice were randomized into two groups: vehicle (5% DMSO in corn oil) and treatment (Bexarotene, 100 mg/kg/day oral dosing). Tumor size was measured every week using Vernier calipers and mice were sacrificed when tumors reached ˜15 mm or after ˜4 weeks of treatment. For patient-derived cells, 2×10^6 cells were injected subcutaneously per site in NSG mice.

MCF7-Ras = experiment: Tumor growth of ex vivo pre-treated MCF7-Ras injected subcutaneously; assay type: in vivo, NSG mice; conditions: ex vivo treatment before injection
Description: as §1

SUM159 PACR cells = experiment: Cell viability IC50 in SUM159 PACR cells; conditions: SUM159 PACR vs SUM159 PT

COc1cc(C)c(C(=O)Oc2cc(C)c(C(=O)Oc3cc(C)c(C(=O)NC(C)C(=O)O)c(O)c3)c(O)c2)c(OC)c1 (centres unmarked) [AmidepsineA]
expression of EMT and basal/luminal markers (NAMEC8 [1]): the gain in epithelial-luminal gene markers such as E-cadherin, KRT8, and MUC1 were suppressed | accumulation of lipid droplets during retinoid treatment (NAMEC8 [2]): clear reductions in the accumulation of lipid droplets during retinoid treatment

CCCCCCCCCS(=O)(=O)Nc1ccccc1C(=O)O [FSG67]
expression of EMT and basal/luminal markers (NAMEC8 [1]): the gain in epithelial-luminal gene markers such as E-cadherin, KRT8, and MUC1 were suppressed | accumulation of lipid droplets during retinoid treatment (NAMEC8 [2]): clear reductions in the accumulation of lipid droplets during retinoid treatment

O=C(NC[C@H](O)CN1CCc2ccccc2C1)c1ccnc(NC2CCC2)c1 [GSK591]
mammosphere formation (NAMEC8 [3]): significantly reduce the size and number of spheres formed | expression of EMT and basal/luminal markers (NAMEC8 [1]): no apparent change was observed

CN(C)c1ccc(C2Nc3ccc4ccccc4c3C3=C2C(=O)CC(C)(C)C3)cc1Br (centres unmarked) [Glutaminase C-IN-1]
cell morphology (NAMEC8 [4]): morphological change from a scattered distribution typically observed in mesenchymal cells to tight clusters of epithelial islands | dose-dependent change of SERPINE1 promoter activity [5]: dose dependent decrease in SERPINE1 promoter activity | dose-dependent change of SERPINE1 promoter activity ([5]; listed as C-IN-1): dose-response effect of decreasing SERPINE1 promoter activity | expression of EMT and basal/luminal markers (NAMEC8 [1]): mesenchymal proteins Zeb1, fibronectin, Slug and Snail were decreased, epithelial E-Cadherin was increased

Nc1ncnc2c1ccn2[C@@H]1O[C@H]([C@H](O)c2ccccc2)[C@@H](O)[C@H]1O [LLY-283]
mammosphere formation (NAMEC8 [3]): significantly reduce the size and number of spheres formed | expression of EMT and basal/luminal markers (NAMEC8 [1]): no apparent change was observed

C/C(=C\c1ccc(C(=O)O)cc1)c1ccc2c(c1)C(C)(C)CCC2(C)C [TTNPB]
cell morphology (SUM159 [6]): dramatic change in morphology from scattered, spindle and fibroblastic-like cells to an epithelial-like morphology | cell morphology (NAMEC8 [4]): dramatic change in morphology from scattered, spindle and fibroblastic-like cells to an epithelial-like morphology | ERE-luciferase reporter activity [7]: increased | Avr FF/Renilla from DMSO ([5]; primary screen, NAMEC8-SERPINE1prom-Luc cells grown 3 days with compound, relative to DMSO): 0.19 | % Avr Renilla from DMSO [8]: 58.46% | tumorigenic potential (SUM159 [9]): severely crippled their tumorigenic potential for up till seven weeks post-transplantation

CC1=C(/C=C/C(C)=C/C=C/C(C)=C/C(=O)O)C(C)(C)CCC1 [Tretinoin (Aberela), Tretinoin]
activity at 10 µM ([5]; Homo sapiens, 72 h, primary screen, NAMEC8-SERPINE1prom-Luc cells grown 3 days with compound, relative to DMSO, read-out: Avr FF/Renilla from DMSO): 50% | tumor cell growth (MCF7-Ras): no impact on the tumor cell growth was observed | viability at 10 µM ([8]; Homo sapiens, 72 h, read-out: % Avr Renilla from DMSO): 87%

COc1cc2c(NC3CCN(C(C)C)CC3)nc(N3CCC(F)(F)CC3)nc2cc1OCCCN1CCCC1 [UNC0642]
expression of EMT and basal/luminal markers (NAMEC8 [1]): no apparent change was observed

CC(=O)O[C@H]1C(=O)[C@@]2(C)[C@H]([C@H](OC(=O)c3ccccc3)[C@]3(O)C[C@H](OC(=O)[C@H](O)[C@@H](NC(=O)c4ccccc4)c4ccccc4)C(C)=C1C3(C)C)[C@]1(OC(C)=O)CO[C@@H]1C[C@@H]2O [paclitaxel]
increase in paclitaxel-resistance, PACR vs parental (PT) cells (SUM159 PACR cells): > 20 fold
